pIC50: −log10 of the molar value.
Legend:
[1] = DPPH radical scavenging assay; conditions: 0.1 mM methanolic DPPH, 30 min in the dark, 517 nm; mean ± S.D., triplicate
Description: Some 1,2,3-triazole compounds are known to act either as inhibitors of free radical production or as radical scavengers. Therefore, the potential antioxidant property of the new 1,2,3-trizole compounds was evaluated by determining their DPPH and SOD radical scavenging ability. DPPH is a stable free radical that accepts an electron or hydrogen radical to become a stable species. Due to its odd electron, DPPH gives a strong absorption band at 517 nm. Antioxidants are suitable reducing agents and neutralize the free radicals by pairing the DPPH odd electron with a hydrogen atom, and the DPPH solution turns yellow, observed as the decrease in absorbance at 517 nm.
The compounds were tested for in vitro antioxidant activities by the 2,2-diphenyl-1-picrylhydrazyl (DPPH) free radical scavenging assay method. The total volume of the assay mixtures containing methanolic DPPH solution (0.1 mM) and different concentrations of samples was 1 mL. After incubation in the dark at room temperature for 30 min., absorbance of the samples (Asample) was measured at 517 nm. Assay mixture without compound was used as control (control absorbance, Acontrol). All experiments were carried out in triplicate and results were expressed as the mean ±standard deviation (S.D.). Butylatedhydroxyanisole (BHA) were used as the reference compound. Free radical scavenging effect was calculated using Equation (1).

[2] = target: T1, Electric eel acetyl-cholinesterase enzyme (AchE, Type-VI-S; EC 3.1.1.7) (Electrophorus electricus, UniProt O42275); test: biochemical; conditions: mean ± S.D. of three independent experiments; Tris-HCl pH 8.00, 412 nm
T1 construct: purchased Sigma-Aldrich Type-VI-S
T1 sequence (O42275 24-633): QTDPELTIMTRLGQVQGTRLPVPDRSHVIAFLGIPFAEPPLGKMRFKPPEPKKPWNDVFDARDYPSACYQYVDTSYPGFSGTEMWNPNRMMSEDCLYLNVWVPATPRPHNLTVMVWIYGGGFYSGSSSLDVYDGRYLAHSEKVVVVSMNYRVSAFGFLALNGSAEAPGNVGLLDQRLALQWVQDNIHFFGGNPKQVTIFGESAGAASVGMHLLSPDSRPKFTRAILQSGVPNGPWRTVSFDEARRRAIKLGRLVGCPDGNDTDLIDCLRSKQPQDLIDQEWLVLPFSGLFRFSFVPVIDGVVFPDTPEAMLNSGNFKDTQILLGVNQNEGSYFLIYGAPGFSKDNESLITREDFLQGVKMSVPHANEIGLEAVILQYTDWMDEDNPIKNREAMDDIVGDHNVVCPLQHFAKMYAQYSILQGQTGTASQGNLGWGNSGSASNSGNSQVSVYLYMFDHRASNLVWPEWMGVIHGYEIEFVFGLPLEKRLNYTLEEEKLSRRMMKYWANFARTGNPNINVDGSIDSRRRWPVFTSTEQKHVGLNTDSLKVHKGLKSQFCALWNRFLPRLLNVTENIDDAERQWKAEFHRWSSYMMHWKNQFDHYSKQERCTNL
Description: Firstly, all of the compounds stock solution in DMF (1 × 10^−3 M) were prepared and then five different concentrations were prepared from stock solution in buffer (Tris-HCI pH 8.00) for experiments. Briefly 50 µL of 50 mM Tris-HCl buffer (pH 8.00), 125 µL of 3 mM DTNB (in buffer), 25 µL of 0.2 U/mL AChE and 25 µL of sample dissolved in buffer and incubated for 15 min. at 25 °C. Fifteen minutes later, 25 µL of 15 mM acetyl thiocholine iodide were added and incubated 5 min. at room temperature. The reaction was initiated by the addition of acetylcholine iodide. The hydrolysis of this substrate was monitored by the formation of the yellow 5-thio-2-nitrobenzoate anion as a result of the reaction DTNB with thiocholine, catalized by enzyme at a wave length of 412 nm using a 96-well microplate reader (Multiskan Go UV-spectrophotometer, Thermo Fisher Scientific Oy Ratastie 2, Vantaa, Finland).
Inhibition of AChE was calculated by the comparison of reaction rates of the samples relative to the blank sample (DMF in phosphate buffer pH = 8) using the Equation (1) where Acontrol is the activity of enzyme without test sample and Asample is the activity of enzyme with test sample: (1) Scavenging effects (%)=[(Acontrol−Asample)/Acontrol]×100
The experiments were carried out in triplicate and IC50 values were examined.

[3] = Superoxide radical scavenging assay (NBT photo reduction method); conditions: pH 7.8, 30 °C, 10 min, 560 nm, mean ± S.D., triplicate
Description: Superoxide scavenging activity of the compounds and reference were tested in a non-enzymatic superoxide radical (O2^−•) generation assay using a modified spectrophotometrical nitro blue tetrazolium (NBT) photo reduction method. The total volume of the assay mixtures containing riboflavin (2 μM), methionine (13 mM), NBT ([…]), EDTA (0.1 mM), and the test samples (50 mM phosphate buffer, pH = 7.8) was 1 mL. After illuminating with a fluorescent lamp at 30 °C for 10 min., the absorbance of the samples (Asample) was measured at 560 nm. Assay mixture without the compound was used as control (control absorbance, Acontrol). All experiments were carried out in triplicate and results were expressed as the mean ± standard deviation (S.D.). Free O2^−• radical scavenging effect was calculated using Equation (1).

C. albicans ATCC 60193 = test: Agar-well diffusion antimicrobial screening; assay type: cell-based, Candida albicans

| SMILES | DPPH IC50 [1] | pIC50 [2] | SOD IC50 [3] | Inhibition Zone Ca (C. albicans ATCC 60193) |
| --- | --- | --- | --- | --- |
| COc1ccc(O)c(C(C)(C)C)c1 [BHA, Butylatedhydroxyanisole, reference compound] | 98.56 (±0.08) µg/mL | – | – | – |
| CC(=O)c1ccc(OCc2cn(CCCn3cc(COc4ccc(C(C)=O)cc4)nn3)nn2)cc1 [Compound 2a, 1,1′-((((Propane-1,3-diylbis(1H-1,2,3-triazole-1,4-diyl))bis(methylene))bis(oxy))bis(4,1-phenylene))bis(ethan-1-one)] | 155.49 (±0.08) µg/mL | 4.19 | 45.12 (±0.04) µg/mL | – |
| CC(=O)c1ccc(OCc2cn(CCCCn3cc(COc4ccc(C(C)=O)cc4)nn3)nn2)cc1 [Compound 2b, 1,1′-((((Butane-1,4-diylbis(1H-1,2,3-triazole-1,4-diyl))bis(methylene))bis(oxy))bis(4,1-phenylene))bis(ethan-1-one)] | 158.72 (±0.05) µg/mL | 4.28 | 107.54 (±0.07) µg/mL | – |
| CC(=O)c1ccc(OCc2cn(CCCCCn3cc(COc4ccc(C(C)=O)cc4)nn3)nn2)cc1 [Compound 2c, 1,1′-((((Pentane-1,5-diylbis(1H-1,2,3-triazole-1,4-diyl))bis(methylene))bis(oxy))bis(4,1-phenylene))bis(ethan-1-one)] | 175.65 (±0.06) µg/mL | 4.17 | 147.36 (±0.05) µg/mL | 6 mm |
| CC(=O)c1ccc(OCc2cn(CCCCCCn3cc(COc4ccc(C(C)=O)cc4)nn3)nn2)cc1 [Compound 2d, 1,1′-((((Hexane-1,6-diylbis(1H-1,2,3-triazole-1,4-diyl))bis(methylene))bis(oxy))bis(4,1-phenylene))bis(ethan-1-one)] | 152.84 (±0.05) µg/mL | 4.20 | 154.79 (±0.06) µg/mL | 6 mm |
| CC(=O)c1ccc(OCc2cn(CCCCCCCCn3cc(COc4ccc(C(C)=O)cc4)nn3)nn2)cc1 [Compound 2e, 1,1′-((((Octane-1,8-diylbis(1H-1,2,3-triazole-1,4-diyl))bis(methylene))bis(oxy))bis(4,1-phenylene))bis(ethan-1-one)] | 222.16 (±0.07) µg/mL | 4.18 | 131.43 (±0.06) µg/mL | – |
| CC(=O)c1ccc(OCc2cn(CCCCCCCCCCn3cc(COc4ccc(C(C)=O)cc4)nn3)nn2)cc1 [Compound 2f, 1,1′-((((Decane-1,10-diylbis(1H-1,2,3-triazole-1,4-diyl))bis(methylene))bis(oxy))bis(4,1-phenylene))bis-(ethan-1-one)] | 167.51 (±0.05) µg/mL | 4.29 | 88.15 (±0.06) µg/mL | – |
| COc1cc(C(C)=O)ccc1OCc1cn(CCCn2cc(COc3ccc(C(C)=O)cc3OC)nn2)nn1 [Compound 3a] | 141.57 (±0.08) µg/mL | 4.20 | 120.53 (±0.04) µg/mL | 6 mm |
| COc1cc(C(C)=O)ccc1OCc1cn(CCCCn2cc(COc3ccc(C(C)=O)cc3OC)nn2)nn1 [Compound 3b, 1-(4-((1-(4-(4-((4-Acetyl-2-methoxyphenoxy)methyl)-1H-1,2,3-triazol-1-yl)butyl)-1H-1,2,3-triazol-4-yl)-methoxy)-2-methoxyphenyl)ethan-1-one] | 113.63 (±0.05) µg/mL | 4.24 | 51.37 (±0.07) µg/mL | – |
| COc1cc(C(C)=O)ccc1OCc1cn(CCCCCn2cc(COc3ccc(C(C)=O)cc3OC)nn2)nn1 [Compound 3c] | 188.45 (±0.11) µg/mL | 4.12 | 284.10 (±0.07) µg/mL | – |
| COc1cc(C(C)=O)ccc1OCc1cn(CCCCCCCCCCn2cc(COc3ccc(C(C)=O)cc3OC)nn2)nn1 [Compound 3f] | 207.57 (±0.09) µg/mL | 4.10 | 98.35 (±0.06) µg/mL | – |
| O=Cc1ccc(OCc2cn(CCCn3cc(COc4ccc(C=O)cc4)nn3)nn2)cc1 [Compound 4a, 4,4′-(((Propane-1,3-diylbis(1H-1,2,3-triazole-1,4-diyl))bis(methylene))bis(oxy))dibenzaldehyde] | 192.02 (±0.12) µg/mL | 4.20 | 55.67 (±0.08) µg/mL | – |
| O=Cc1ccc(OCc2cn(CCCCn3cc(COc4ccc(C=O)cc4)nn3)nn2)cc1 [Compound 4b, 4,4′-(((Butane-1,4-diylbis(1H-1,2,3-triazole-1,4-diyl))bis(methylene))bis(oxy))dibenzaldehyde] | 125.05 (±0.08) µg/mL | 4.13 | 121.74 (±0.08) µg/mL | 6 mm |
| O=Cc1ccc(OCc2cn(CCCCCn3cc(COc4ccc(C=O)cc4)nn3)nn2)cc1 [Compound 4c, 4,4′-(((Pentane-1,5-diylbis(1H-1,2,3-triazole-1,4-diyl))bis(methylene))bis(oxy))dibenzaldehyde] | 227.38 (±0.07) µg/mL | 4.08 | 60.32 (±0.07) µg/mL | 6 mm |
| O=Cc1ccc(OCc2cn(CCCCCCn3cc(COc4ccc(C=O)cc4)nn3)nn2)cc1 [Compound 4d, 4,4′-(((Hexane-1,6-diylbis(1H-1,2,3-triazole-1,4-diyl))bis(methylene))bis(oxy))dibenzaldehyde] | 204.31 (±0.11) µg/mL | 4.23 | 82.77 (±0.11) µg/mL | – |
| O=Cc1ccc(OCc2cn(CCCCCCCCCCn3cc(COc4ccc(C=O)cc4)nn3)nn2)cc1 [Compound 4f, 4,4′-(((Decane-1,10-diylbis(1H-1,2,3-triazole-1,4-diyl))bis(methylene))bis(oxy))dibenzaldehyde] | 210.33 (±0.08) µg/mL | 4.20 | 93.47 (±0.09) µg/mL | – |
| COc1cc(C=O)ccc1OCc1cn(CCCn2cc(COc3ccc(C=O)cc3OC)nn2)nn1 [Compound 5a] | 150.03 (±0.08) µg/mL | 4.13 | 126.2 (±0.07) µg/mL | – |
| COc1cc(C=O)ccc1OCc1cn(CCCCn2cc(COc3ccc(C=O)cc3OC)nn2)nn1 [Compound 5b] | 154.51 (±0.07) µg/mL | 4.21 | 109.17 (±0.10) µg/mL | – |
| COc1cc(C=O)ccc1OCc1cn(CCCCCn2cc(COc3ccc(C=O)cc3OC)nn2)nn1 [Compound 5c] | 192.46 (±0.11) µg/mL | 4.16 | 145.68 (±0.11) µg/mL | – |
| COc1cc(C=O)ccc1OCc1cn(CCCCCCn2cc(COc3ccc(C=O)cc3OC)nn2)nn1 [Compound 5d] | 191.39 (±0.08) µg/mL | 4.15 | 157.14 (±0.07) µg/mL | – |
| COc1cc(C=O)ccc1OCc1cn(CCCCCCCCn2cc(COc3ccc(C=O)cc3OC)nn2)nn1 [Compound 5e] | 221.57 (±0.06) µg/mL | 4.21 | 188.84 (±0.08) µg/mL | – |
